Test systems include Escherichia coli; Escherichia coli MG1655; Candida albicans; Escherichia coli BW25113.
Common to all, as to assay: ≥ marks a high value that may be exact or a test limit, other limits are often not marked, values filed in µg/mL are converted to µM
For assay [1], the system named is Escherichia coli ATCC 25922.
In assay [2] the test system is Escherichia coli DH5alpha.
The subject of assay [3] is Pseudomonas aeruginosa ATCC 27853.
The test system of assay [4] is Pseudomonas aeruginosa H188.
Assay [5] concerns Escherichia coli ATCC 8739.
Assay [6] relates to Staphylococcus aureus ATCC 25923.
Assay [7] concerns Pseudomonas aeruginosa PAO1.
The subject of assay [8] is Salmonella enterica subsp. enterica serovar Typhimurium ATCC 14028.
In assay [9] the test system is Escherichia coli BW25113 ΔsbmA.
Assay [10] has as its system Acinetobacter baumannii ATCC 19606.
Assay [11] concerns Klebsiella pneumoniae ATCC 700603.
For assay [12], the system named is Candida albicans ATCC 90028.
Assay [13] has as its system Cryptococcus neoformans ATCC 208821.
Assay [14] relates to Staphylococcus aureus ATCC 43300.

Among the data in DBAASP are MIC values, retold here.

Converted amounts (≈) assume the structure as drawn.

As to `CC[C@H](C)[C@H](NC(=O)[C@H](C)NC(=O)[C@H](CCCCN)NC(=O)[C@H](CC(C)C)NC(=O)[C@H](C)NC(=O)[C@@H](NC(=O)[C@H](Cc1cnc[nH]1)NC(=O)[C@H](CC(C)C)NC(=O)CNC(=O)[C@@H](NC(=O)[C@H](CCCCN)NC(=O)[C@H](CCCCN)NC(=O)[C@H](C)NC(=O)[C@H](CO)NC(=O)[C@H](CCCCN)NC(=O)[C@H](Cc1ccccc1)NC(=O)[C@@H](NC(=O)[C@H](CCCCN)NC(=O)[C@H](CC(C)C)NC(=O)[C@H](Cc1ccccc1)NC(=O)[C@H](CO)NC(=O)[C@H](CCCCN)NC(=O)[C@H](Cc1c[nH]c2ccccc12)NC(=O)[C@H](CCCCN)NC(C)=O)[C@@H](C)O)[C@@H](C)O)[C@@H](C)O)C(=O)N[C@@H](CO)C(=O)N[C@@H](CO)C(N)=O` [KWKSFLKTFKSAKKTGLHTALKAISS], the MIC in assay [1] amounted to 2.75 µM (≈ 8.11 µg/mL); in [2], 2.75 µM (≈ 8.11 µg/mL); in assay [3], 11 µM (≈ 32.5 µg/mL); in the assay on Escherichia coli, 5.5 µM (≈ 16.2 µg/mL); in assay [4], 2.75 µM (≈ 8.11 µg/mL).
On to `CC[C@H](C)[C@H](NC(=O)[C@H](C)NC(=O)[C@H](CCCCN)NC(=O)[C@H](CC(C)C)NC(=O)[C@H](C)NC(=O)[C@@H](NC(=O)[C@H](Cc1cnc[nH]1)NC(=O)[C@H](CC(C)C)NC(=O)[C@H](CC(C)C)NC(=O)[C@@H](NC(=O)[C@H](CCCCN)NC(=O)[C@H](CCCCN)NC(=O)[C@H](C)NC(=O)[C@H](CO)NC(=O)[C@H](CCCCN)NC(=O)[C@H](Cc1ccccc1)NC(=O)[C@@H](NC(=O)[C@H](CCCCN)NC(=O)[C@H](CC(C)C)NC(=O)[C@H](Cc1ccccc1)NC(=O)[C@H](CO)NC(=O)[C@H](CCCCN)NC(=O)[C@H](Cc1c[nH]c2ccccc12)NC(=O)[C@H](CCCCN)NC(C)=O)[C@@H](C)O)[C@@H](C)O)[C@@H](C)O)C(=O)N[C@@H](CO)C(=O)N[C@@H](CO)C(N)=O` [KWKSFLKTFKSAKKTLLHTALKAISS], for which the MIC was 0.337 µM (≈ 1.01 µg/mL) in [1]; 1.35 µM (≈ 4.06 µg/mL) in [2]; 0.675 µM (≈ 2.03 µg/mL) in assay [3]; 0.337 µM (≈ 1.01 µg/mL) against Escherichia coli; 0.675 µM (≈ 2.03 µg/mL) in assay [4].
In assay [5], `CC[C@H](C)[C@H](NC(=O)[C@H](CCCCN)NC(=O)[C@H](CC(=O)O)NC(=O)[C@H](CC(C)C)NC(=O)[C@@H](NC(=O)[C@H](CCCN=C(N)N)NC(=O)[C@H](CC(C)C)NC(=O)[C@H](CC(C)C)NC(=O)[C@H](CC(C)C)NC(=O)[C@H](CCCCN)NC(=O)[C@H](CC(N)=O)NC(=O)[C@@H](NC(=O)[C@H](CCCCN)NC(=O)[C@H](CCCCN)NC(=O)[C@@H]1CCCN1)[C@@H](C)CC)[C@@H](C)CC)C(=O)N[C@@H](C)C(=O)N[C@@H](CO)C(=O)N[C@@H](Cc1ccccc1)C(=O)N[C@@H](CO)C(=O)O` [PKKINKLLLRILDKIASFS] came in with an MIC of 14.6 µM (≈ 32 µg/mL).
On the same count and under the same terms, the same measure for `CC[C@H](C)[C@H](NC(=O)[C@H](CCCCN)NC(=O)[C@H](CCCCN)NC(=O)[C@H](CCCCN)NC(=O)[C@@H](NC(=O)[C@H](CCCN=C(N)N)NC(=O)[C@@H](NC(=O)[C@H](CC(C)C)NC(=O)[C@H](CC(C)C)NC(=O)[C@H](CCCCN)NC(=O)[C@H](CCSC)NC(=O)[C@@H]1CCCN1)C(C)C)C(C)C)C(=O)NCC(=O)N[C@@H](CC(=O)O)C(=O)N[C@@H](C)C(=O)N[C@@H](CC(C)C)C(=O)N[C@@H](CCC(=O)O)C(=O)N[C@@H](CC(C)C)C(=O)NCC(=O)O` [PMKLLVRVKKKIGDALELG]: no less than 60.7 µM.
For `CC(C)C[C@H](NC(=O)[C@@H](NC(=O)[C@H](CCC(=O)O)NC(=O)[C@@H](N)CCCN=C(N)N)C(C)C)C(=O)NCC(=O)N[C@@H](Cc1ccc(O)cc1)C(=O)N[C@@H](CCC(=O)O)C(=O)N[C@@H](CCCN=C(N)N)C(=O)N[C@@H](CC(N)=O)C(=O)N[C@@H](CO)C(=O)N[C@@H](Cc1ccc(O)cc1)C(=O)N[C@@H](CCCCN)C(N)=O` [REVLGYERNSYK], the MIC against Escherichia coli MG1655 was no less than 128 µM; in [6] it was greater than 128 µM; with Candida albicans, greater than 128 µM; in [7], greater than 128 µM.
Turning to `CC[C@H](C)[C@H](NC(=O)[C@@H]1CCCN1C(=O)[C@@H]1CCCN1C(=O)[C@H](CCCN=C(N)N)NC(=O)[C@H](Cc1ccccc1)NC(=O)[C@@H](N)CCCN=C(N)N)C(=O)N[C@@H](CCCN=C(N)N)C(=O)N[C@@H](CCCN=C(N)N)C(=O)N1CCC[C@H]1C(=O)N1CCC[C@H]1C(=O)N[C@H](C(=O)N[C@@H](CCCN=C(N)N)C(=O)N1CCC[C@H]1C(=O)N1CCC[C@H]1C(=O)N[C@@H](Cc1ccccc1)C(=O)N[C@@H](Cc1ccc(O)cc1)C(=O)N1CCC[C@H]1C(=O)N1CCC[C@H]1C(=O)N[C@@H](Cc1ccccc1)C(=O)O)[C@@H](C)CC` [RFRPPIRRPPIRPPFYPPF], the MIC was 8 µM (≈ 19.3 µg/mL) in the assay on Escherichia coli BW25113; 32 µM (≈ 77 µg/mL) in assay [8]; greater than 64 µM in assay [6]; 12 µM (≈ 28.9 µg/mL) in [1]; no less than 32 µM in assay [9]; 32 µM (≈ 77 µg/mL) in assay [10]. The MIC in assay [3] and in assay [11] was greater than 64 µM each time.
Take `CC[C@H](C)[C@H](NC(=O)[C@@H]1CCCN1C(=O)[C@@H]1CCCN1C(=O)[C@H](CCCN=C(N)N)NC(=O)[C@H](Cc1ccccc1)NC(=O)[C@@H](N)CCCN=C(N)N)C(=O)N[C@@H](CCCN=C(N)N)C(=O)N[C@@H](CCCN=C(N)N)C(=O)N1CCC[C@H]1C(=O)N1CCC[C@H]1C(=O)N[C@H](C(=O)N[C@@H](CCCN=C(N)N)C(=O)N1CCC[C@H]1C(=O)N1CCC[C@H]1C(=O)N[C@@H](Cc1ccccc1)C(=O)N[C@@H](Cc1ccc(O)cc1)C(=O)N1CCC[C@H]1C(=O)O)[C@@H](C)CC` [RFRPPIRRPPIRPPFYP]: the MIC with Escherichia coli BW25113 is 11.3 µM (≈ 24.5 µg/mL); in assay [8] it was 32 µM (≈ 69.2 µg/mL); in [6], greater than 64 µM; in [1], 16 µM (≈ 34.6 µg/mL); in [9], no less than 64 µM; in assay [10], 64 µM (≈ 138 µg/mL). The values for the MIC (in assay [3]; against Escherichia coli; in [11]) were greater than 64 µM, 5.66 µM (≈ 12.2 µg/mL) and greater than 64 µM, respectively.
Turning to `NC(=O)CC[C@H](NC(=O)[C@H](Cc1cnc[nH]1)NC(=O)[C@H](CO)NC(=O)[C@H](CCCN=C(N)N)NC(=O)[C@H](Cc1ccccc1)NC(=O)[C@H](Cc1cnc[nH]1)NC(=O)[C@H](CCCN=C(N)N)NC(=O)[C@H](Cc1cnc[nH]1)NC(=O)[C@H](Cc1cnc[nH]1)NC(=O)[C@@H](N)CO)C(=O)N[C@@H](CS)C(=O)N[C@@H](CCCN=C(N)N)C(=O)N[C@@H](CCCN=C(N)N)C(=O)O` [SHHRHFRSHQCRR], the MIC in assay [12] was 18.3 µM (≈ 32 µg/mL); in assay [1], greater than 18.3 µM; in assay [13] it was 4.59 µM (≈ 8 µg/mL); in assay [10], greater than 18.3 µM; in [14] it was 18.3 µM (≈ 32 µg/mL); in assay [3], greater than 18.3 µM. In assay [11], this molecule had an MIC greater than 18.3 µM.
In the case of `CC[C@H](C)[C@H](NC(=O)[C@H](CCCCN)NC(=O)CNC(=O)[C@H](CC(C)C)NC(=O)[C@H](Cc1ccccc1)NC(=O)[C@H](CCC(N)=O)NC(=O)[C@H](Cc1ccccc1)NC(=O)[C@@H](N)C(C)C)C(=O)N[C@H](C(=O)N[C@@H](Cc1cnc[nH]1)C(=O)N[C@@H](Cc1cnc[nH]1)C(=O)N[C@H](C(=O)NCC(=O)N[C@@H](CC(N)=O)C(=O)N[C@@H](Cc1ccccc1)C(=O)N[C@H](C(=O)N[C@@H](C)C(=O)NCC(=O)N[C@@H](Cc1ccccc1)C(=O)N[C@@H](CO)C(=O)N[C@@H](C)C(=O)N[C@H](C(=O)N[C@@H](Cc1ccccc1)C(N)=O)C(C)C)C(C)C)C(C)C)[C@@H](C)CC` [VFQFLGKIIHHVGNFVAGFSAVF], the MIC against Escherichia coli MG1655 was no less than 128 µM.
